Measurements from patent publication US20260026504A1, “COMPOUND […] STRUCTURE, APPLICATION, AND INSECTICIDE” (Anhui Shengfeng Biochemical Co., Ltd, priority 2022, published 2026).
Read-outs that look alike come from different tables or passages of the source.

System: diamondback moth (Plutella xylostella) second instar larvae
Assay: Toxicity to diamondback moth larvae by the leaf-dipping method
Type: in vivo
Conditions: corrected mortality grade, 1 ppm, cabbage leaf dip; for mortality at 1 ppm: Plutella xylostella, in Brassica oleracea, foliar
Method: Determining the toxicity activity of part of compounds on diamondback moth (Plutella xylostella) instar larvae by the leafdipping method.
The test agents of the compounds in Table 2 were weighed out accurately with an electronic analytical balance, and the original drug was dissolved in a 10000 ppm solution with dimethyl sulfoxide as the solvent and then diluted with 0.1% of Triton solution to 1 ppm and 0.25 ppm solutions. Taking the cabbage not contacted with the liquid medicine, and cutting the leaves into 6 cm-diameter circular leaves. Soaking the leaves in the prepared liquid medicine for 15 seconds, taking out and drying, and placing the leaves into 6 cm culture dishes, wherein 1 cabbage leaf is placed in each culture dish. The same standard second instar larvae were placed in petri dishes with 10 heads per dish and 4 replicates per concentration for a total of 40 heads. After inoculation, the culture dish is placed in a constant-temperature culture chamber with the temperature of 25±1° C. and the illumination period of 16 (D) to 8 (L) h, and the number of dead and live larvae is investigated after 48 h and 72 h. A blank and a control of compound K1 and compound K2 were also provided.
The mortality is calculated according to the following formula 1, then the corrected mortality is calculated according to the formula 2, and finally the classification is carried out according to the corrected mortality value and the rating standard shown in the table 2, and the specific results are shown in the tables 3 and 4.
mortality %=(number of dead insects/total number of insects)×100% Equation 1;
corrected mortality %=[(treatment-control mortality)/(1-control mortality)]×100% Equation 2.

[1] = 48 h, 48 h, read-out: mortality (1 ppm) 48 h
[2] = 72 h, 72 h, read-out: mortality (1 ppm) 72 h

SMILES	mortality at 1 ppm [1]	mortality at 1 ppm [2]	mortality (1 ppm) 72 h (72 h)
Cc1cc(C2=NOC(c3cc(Cl)cc(Cl)c3)(C(F)(F)F)C2)ccc1C(=O)Nc1cn[nH]c1 (stereo not drawn) [Compound 1]	50 to 70%	70 to 80%	–
Cc1cc(C2=NOC(c3cc(Cl)cc(Cl)c3)(C(F)(F)F)C2)ccc1C(=O)Nc1cnn(C)c1 (stereo not drawn) [Compound 2]	80 to 90%	100%	–
CCn1cc(NC(=O)c2ccc(C3=NOC(c4cc(Cl)cc(Cl)c4)(C(F)(F)F)C3)cc2C)cn1 (stereo not drawn) [Compound 3]	70 to 80%	90 to 100%	–
CCCn1cc(NC(=O)c2ccc(C3=NOC(c4cc(Cl)cc(Cl)c4)(C(F)(F)F)C3)cc2C)cn1 (stereo not drawn) [Compound 4]	50 to 70%	50 to 70%	–
Cc1cc(C2=NOC(c3cc(Cl)cc(Cl)c3)(C(F)(F)F)C2)ccc1C(=O)Nc1cnn(C(C)C)c1 (stereo not drawn) [Compound 5]	90 to 100%	100%	–
Cc1cc(C2=NOC(c3cc(Cl)cc(Cl)c3)(C(F)(F)F)C2)ccc1C(=O)Nc1cnn(CC(F)(F)F)c1 (stereo not drawn) [Compound 7]	–	80 to 90%	–
Cc1cc(C2=NOC(c3cc(Cl)cc(Cl)c3)(C(F)(F)F)C2)ccc1C(=O)Nc1cnn(CC(F)F)c1 (stereo not drawn) [Compound 8]	50 to 70%	80 to 90%	–
Cc1cc(C2=NOC(c3cc(Cl)cc(Cl)c3)(C(F)(F)F)C2)ccc1C(=O)Nc1cnn(CCF)c1 (stereo not drawn) [Compound 9]	–	80 to 90%	–
Cc1cc(C2=NOC(c3cc(Cl)cc(Cl)c3)(C(F)(F)F)C2)ccc1C(=O)Nc1cnn(CCC(F)(F)F)c1 (stereo not drawn) [Compound 10]	50 to 70%	100%	–
Cc1cc(C2=NOC(c3cc(Cl)cc(Cl)c3)(C(F)(F)F)C2)ccc1C(=O)Nc1cnn(CCCF)c1 (stereo not drawn) [Compound 11]	50 to 70%	100%	–
COCn1cc(NC(=O)c2ccc(C3=NOC(c4cc(Cl)cc(Cl)c4)(C(F)(F)F)C3)cc2C)cn1 (stereo not drawn) [Compound 12]	50 to 70%	50 to 70%	–
CCC(C)n1cc(NC(=O)c2ccc(C3=NOC(c4cc(Cl)cc(Cl)c4)(C(F)(F)F)C3)cc2C)cn1 (stereo not drawn) [Compound 16]	–	70 to 80%	–
Cc1cc(C2=NOC(c3cc(Cl)cc(Cl)c3)(C(F)(F)F)C2)ccc1C(=O)Nc1cnn(C2CC2)c1 (stereo not drawn) [Compound 23]	100%	100%	–
Cc1cc(C2=NOC(c3cc(Cl)cc(Cl)c3)(C(F)(F)F)C2)ccc1C(=O)Nc1cnn(C2CCC2)c1 (stereo not drawn) [Compound 24]	–	50 to 70%	–
C=CCn1cc(NC(=O)c2ccc(C3=NOC(c4cc(Cl)cc(Cl)c4)(C(F)(F)F)C3)cc2C)cn1 (stereo not drawn) [Compound 27]	50 to 70%	70 to 80%	–
C#CCn1cc(NC(=O)c2ccc(C3=NOC(c4cc(Cl)cc(Cl)c4)(C(F)(F)F)C3)cc2C)cn1 (stereo not drawn) [Compound 28]	80 to 90%	100%	–
Cc1cc(C2=NOC(c3cc(Cl)cc(Cl)c3)(C(F)(F)F)C2)ccc1C(=O)Nc1cnn(CC2CC2)c1 (stereo not drawn) [Compound 30]	–	50 to 70%	–
Cc1cc(C2=NOC(c3cc(Cl)cc(Cl)c3)(C(F)(F)F)C2)ccc1C(=O)Nc1cnn(CC2CCCCC2)c1 (stereo not drawn) [Compound 33]	–	50 to 70%	–
COC(Cn1cc(NC(=O)c2ccc(C3=NOC(c4cc(Cl)cc(Cl)c4)(C(F)(F)F)C3)cc2C)cn1)OC (stereo not drawn) [Compound 36]	–	50 to 70%	–
Cc1cc(C2=NOC(c3cc(Cl)cc(Cl)c3)(C(F)(F)F)C2)ccc1C(=O)Nc1cnn(C2CCOC2)c1 (stereo not drawn) [Compound 39]	–	50 to 70%	–
Cc1cc(C2=NOC(c3cc(Cl)cc(Cl)c3)(C(F)(F)F)C2)ccc1C(=O)Nc1cnn(C2CCOCC2)c1 (stereo not drawn) [Compound 40]	50 to 70%	50 to 70%	–
Cc1cc(C2=NOC(c3cc(Cl)cc(Cl)c3)(C(F)(F)F)C2)ccc1C(=O)Nc1cnn(-c2ccccc2F)c1 (stereo not drawn) [Compound 42]	–	50 to 70%	–
Cc1cc(C2=NOC(c3cc(Cl)cc(Cl)c3)(C(F)(F)F)C2)ccc1C(=O)Nc1cnn(-c2ccccc2Br)c1 (stereo not drawn) [Compound 44]	–	50 to 70%	–
Cc1cc(C2=NOC(c3cc(Cl)cc(Cl)c3)(C(F)(F)F)C2)ccc1C(=O)Nc1cnn(-c2cccc(F)c2)c1 (stereo not drawn) [Compound 47]	–	50 to 70%	–
COc1cccc(-n2cc(NC(=O)c3ccc(C4=NOC(c5cc(Cl)cc(Cl)c5)(C(F)(F)F)C4)cc3C)cn2)c1 (stereo not drawn) [Compound 51]	–	50 to 70%	–
Cc1cc(C2=NOC(c3cc(Cl)cc(Cl)c3)(C(F)(F)F)C2)ccc1C(=O)Nc1cnn(-c2ccc(F)cc2)c1 (stereo not drawn) [Compound 52]	–	50 to 70%	–
CC(=O)n1cc(NC(=O)c2ccc(C3=NOC(c4cc(Cl)cc(Cl)c4)(C(F)(F)F)C3)cc2C)cn1 (stereo not drawn) [Compound 58]	–	50 to 70%	–

SMILES	mortality at 1 ppm [1]	mortality at 1 ppm [2]	mortality (1 ppm) 72 h (72 h)
CCC(=O)n1cc(NC(=O)c2ccc(C3=NOC(c4cc(Cl)cc(Cl)c4)(C(F)(F)F)C3)cc2C)cn1 (stereo not drawn) [Compound 59]	–	50 to 70%	–
CCCC(=O)n1cc(NC(=O)c2ccc(C3=NOC(c4cc(Cl)cc(Cl)c4)(C(F)(F)F)C3)cc2C)cn1 (stereo not drawn) [Compound 60]	–	50 to 70%	–
Cc1cc(C2=NOC(c3cc(Cl)cc(Cl)c3)(C(F)(F)F)C2)ccc1C(=O)Nc1cnn(C(=O)C2CCC2)c1 (stereo not drawn) [Compound 64]	–	50 to 70%	–
Cc1cc(C2=NOC(c3cc(Cl)cc(Cl)c3)(C(F)(F)F)C2)ccc1C(=O)Nc1cnn(C(=O)N(C)C)c1 (stereo not drawn) [Compound 67]	–	90 to 100%	–
CCN(CC)C(=O)n1cc(NC(=O)c2ccc(C3=NOC(c4cc(Cl)cc(Cl)c4)(C(F)(F)F)C3)cc2C)cn1 (stereo not drawn) [Compound 68]	–	50 to 70%	–
Cc1cc(C2=NOC(c3cc(Cl)cc(Cl)c3)(C(F)(F)F)C2)ccc1C(=O)Nc1cnn(S(C)(=O)=O)c1 (stereo not drawn) [Compound 69]	–	50 to 70%	–
CCCS(=O)(=O)n1cc(NC(=O)c2ccc(C3=NOC(c4cc(Cl)cc(Cl)c4)(C(F)(F)F)C3)cc2C)cn1 (stereo not drawn) [Compound 71]	–	70 to 80%	–
Cc1cc(C2=NOC(c3cc(Cl)cc(Cl)c3)(C(F)(F)F)C2)ccc1C(=O)Nc1cnn(S(=O)(=O)C(C)C)c1 (stereo not drawn) [Compound 72]	–	50 to 70%	–
Cc1cc(C2=NOC(c3cc(Cl)cc(Cl)c3)(C(F)(F)F)C2)ccc1C(=O)Nc1cnn(S(=O)(=O)c2ccccc2)c1 (stereo not drawn) [Compound 73]	–	50 to 70%	–
Cc1cc(C2=NOC(c3cc(Cl)cc(Cl)c3)(C(F)(F)F)C2)ccc1C(=O)Nc1cnn(S(=O)(=O)C2CCCCC2)c1 (stereo not drawn) [Compound 75]	90 to 100%	90 to 100%	–
CCn1nc(C)c(NC(=O)c2ccc(C3=NOC(c4cc(Cl)cc(Cl)c4)(C(F)(F)F)C3)cc2C)c1C (stereo not drawn) [Compound 97]	–	80 to 90%	–
CCCn1nc(C)c(NC(=O)c2ccc(C3=NOC(c4cc(Cl)cc(Cl)c4)(C(F)(F)F)C3)cc2C)c1C (stereo not drawn) [Compound 98]	–	50 to 70%	–
CCC(CC)n1nc(C)c(NC(=O)c2ccc(C3=NOC(c4cc(Cl)cc(Cl)c4)(C(F)(F)F)C3)cc2C)c1C (stereo not drawn) [Compound 102]	–	50 to 70%	–
Cc1cc(C2=NOC(c3cc(Cl)cc(Cl)c3)(C(F)(F)F)C2)ccc1C(=O)Nc1c(C)nn(Cc2ccccc2)c1C (stereo not drawn) [Compound 104]	–	50 to 70%	–
Cc1cc(C2=NOC(c3cc(Cl)c(F)c(Cl)c3)(C(F)(F)F)C2)ccc1C(=O)Nc1cn[nH]c1 (stereo not drawn) [Compound 123]	90 to 100%	100%	–
Cc1cc(C2=NOC(c3cc(Cl)c(F)c(Cl)c3)(C(F)(F)F)C2)ccc1C(=O)Nc1cnn(C)c1 (stereo not drawn) [Compound 124]	80 to 90%	100%	–
CCn1cc(NC(=O)c2ccc(C3=NOC(c4cc(Cl)c(F)c(Cl)c4)(C(F)(F)F)C3)cc2C)cn1 (stereo not drawn) [Compound 125]	100%	100%	–
Cc1cc(C2=NOC(c3cc(Cl)c(F)c(Cl)c3)(C(F)(F)F)C2)ccc1C(=O)Nc1cnn(C2CC2)c1 (stereo not drawn) [Compound 129]	100%	100%	–
Cc1cc(C2=NOC(c3cc(Cl)c(F)c(Cl)c3)(C(F)(F)F)C2)ccc1C(=O)Nc1cnn(C2CCC2)c1 (stereo not drawn) [Compound 130]	90 to 100%	100%	–
Cc1cc(C2=NOC(c3cc(Cl)c(F)c(Cl)c3)(C(F)(F)F)C2)ccc1C(=O)Nc1cnn(C2CCCC2)c1 (stereo not drawn) [Compound 131]	80 to 90%	100%	–
Cc1cc(C2=NOC(c3cc(Cl)c(F)c(Cl)c3)(C(F)(F)F)C2)ccc1C(=O)Nc1cnn(C2CCCCC2)c1 (stereo not drawn) [Compound 132]	50 to 70%	100%	–
Cc1cc(C2=NOC(c3cc(Cl)c(F)c(Cl)c3)(C(F)(F)F)C2)ccc1C(=O)Nc1cnn(CC2CC2)c1 (stereo not drawn) [Compound 133]	80 to 90%	100%	–
Cc1cc(C2=NOC(c3cc(Cl)c(F)c(Cl)c3)(C(F)(F)F)C2)ccc1C(=O)Nc1cnn(CC2CCC2)c1 (stereo not drawn) [Compound 134]	–	70 to 80%	–
Cc1cc(C2=NOC(c3cc(Cl)c(F)c(Cl)c3)(C(F)(F)F)C2)ccc1C(=O)Nc1cnn(C2CCCCC2)c1 (stereo not drawn) [Compound 137]	–	–	C (80% to less than 90%)
Cc1cc(C2=NOC(c3cc(Cl)c(F)c(Cl)c3)(C(F)(F)F)C2)ccc1C(=O)Nc1cnn(Cc2ccccc2)c1 (stereo not drawn) [Compound 139]	–	50 to 70%	–
CC(=O)n1cc(NC(=O)c2ccc(C3=NOC(c4cc(Cl)c(F)c(Cl)c4)(C(F)(F)F)C3)cc2C)cn1 (stereo not drawn) [Compound 140]	–	50 to 70%	–
